The text below walks through data of patent publication US10765662B2, “Mono- or di-substituted indole derivatives as dengue viral replication inhibitors” (Janssen Pharmaceuticals, Inc., priority 2015, dated 2020).

SMILES strings stand for the structures.

The test system of one series is DENV-2 strain 16681. Briefly: Tetravalent RT-qPCR assay Protocol A, serotype 2. It is filed as cell-based. The note with it: Dengue virus, DENV2, 72 h; RT-qPCR serotype 2 16681, Vero cells, day 3. The procedure:
(§1) The antiviral activity of the compounds of the invention was tested against DENV-1 strain TC974#666 (NCPV), DENV-2 strain 16681, DENV-3 strain H87 (NCPV) and DENV-4 strains H241 (NCPV) and EDEN (SG/06K2270DK1/2005; GenBank accession number QG398256) in a RT-qPCR assay. Therefore, Vero cells were infected with either DENV-1, or -2, or -3, or -4 in the presence or absence of test compounds. At day 3 post-infection, the cells were lysed and cell lysates were used to prepare cDNA of both a viral target (the 3′UTR of DENV; Table 2) and a cellular reference gene (β-actin, Table 2). Subsequently, a duplex real time PCR was performed on a Lightcycler480 instrument. The generated Cp value is inversely proportional to the amount of RNA expression of these targets. Inhibition of DENV replication by a test compound results in a shift of Cp's for the 3′UTR gene. On the other hand, if a test compound is toxic to the cells, a similar effect on β-actin expression will be observed. The comparative ΔΔCp method is used to calculate EC50, which is based on the relative gene expression of the target gene (3′UTR) normalized with the cellular housekeeping gene (β-actin). In addition, CC50 values are determined based on the Cp values acquired for the housekeeping gene β-actin.
(§2) The culture medium consisted of minimal essential medium supplemented with 2% of heat-inactivated fetal calf serum, 0.04% gentamycin (50 mg/mL) and 2 mM of L-glutamine. Vero cells, obtained from ECACC, were suspended in culture medium and 75 μL/well was added in 96-well plates (10000 cells/well), which already contain the antiviral compounds. […] In addition, each plate contains wells which are assigned as virus controls (containing cells and virus in the absence of compound) and cell controls (containing cells in the absence of virus and compound). Once the cells were added in the plates, the plates were incubated in a fully humidified incubator (37° C., 5% CO2) until the next day. Dengue viruses serotype-1, 2, 3 and 4 were diluted in order to obtain a Cp of ˜22-24 in the assay. Therefore, 25 μL of virus suspension, was added to all the wells containing test compound and to the wells assigned as virus control. In parallel, 25 μL of culture medium was added to the cell controls. Next, the plates were incubated for 3 days in a fully humidified incubator (37° C., 5% CO2). After 3 days, the supernatant was removed from the wells and the cells were washed twice with ice-cold PBS (˜100 μL). The cell pellets within the 96-well plates were stored at −80° C. for at least 1 day. Next, RNA was extracted using the Cells-to-CT™ lysis kit, according to the manufacturer's guideline (Life Technologies). The cell lysates can be stored at −80° C. or immediately used in the reverse transcription step.
(§3) In preparation of the reverse transcription step, mix A (table 3A) was prepared and 7.57 μL/well was dispensed in a 96-well plate. After addition of 5 μL of the cell lysates, a five minute denaturation step at 75° C. was performed (table 3B). Afterwards, 7.43 μL of mix B was added (table 3C) and the reverse transcription step was initiated (table 3D) to generate cDNA.
(§4) Finally, a RT-qPCR mix was prepared, mix C (table 4A), and 22.02 μL/well was dispensed in 96-well LightCycler qPCR plates to which 3 μL of cDNA was added and the qPCR was performed according to the conditions in table 4B on a LightCycler 480.
(§5) Using the LightCycler software and an in-house LIMS system, dose response curves for each compound were calculated and the half maximal effective concentration (EC50) and the half maximal cytotoxic concentration (CC50) were determined (Tables 5-8).

Series [1] is described as follows: in vitro. Type of series: cell-based. As to conditions: African green monkey, CC50. The procedure: (§6) In parallel, the toxicity of the compounds was assessed on the same plates. Once the read-out for the eGFP signal was done, 40 μL of ATPlite, a cell viability stain, was added to all wells of the 384-well plates. ATP is present in all metabolically active cells and the concentration declines very rapidly when the cells undergo necrosis or apoptosis. The ATPLite assay system is based on the production of light caused by the reaction of ATP with added luciferase and D-luciferin. The plates were incubated for 10 minutes at room temperature. Next, the plates were measured on a ViewLux. The half maximal cytotoxic concentration (CC50) was also determined, defined as the concentration required to reduce the luminescent signal by 50% compared to that of the cell control wells. Finally, the selectivity index (SI) was determined for the compounds, which was calculated as followed: SI=CC50/EC50.

Another series relates to DENV-4 strain H241. Briefly: Tetravalent RT-qPCR assay Protocol A, serotype 4 H241. Type of series: cell-based. As to conditions: Dengue virus, DENV4, Vero, 72 h. As to the method: as §1, §2, §3, §4, §5
The subject of series [2] is DENV-2 16681 strain labeled with enhanced green fluorescent protein. The series can be described thus: DENV-2 antiviral assay (eGFP fluorescence read-out in Vero cells). Type of series: cell-based, Dengue virus. The note with it: DENV-2 16681 eGFP, MOI 0.5, 3 days. The procedure: The antiviral activity of all the compounds of the invention was tested against the DENV-2 16681 strain which was labeled with enhanced green fluorescent protein (eGPF). The culture medium consists of minimal essential medium supplemented with 2% of heat-inactivated fetal calf serum, 0.04% gentamycin (50 mg/mL) and 2 mM of L-glutamine. Vero cells, obtained from ECACC, were suspended in culture medium and 25 μL was added to 384-well plates (2500 cells/well), which already contain the antiviral compounds. Typically, these plates contain a 5-fold serial dilution of 9 dilution steps of the test compound at 200 times the final concentration in 100% DMSO (200 nL). […] Finally, each plate contains wells which are assigned as virus controls (containing cells and virus in the absence of compound), cell controls (containing cells in the absence of virus and compound) and medium controls (containing medium in the absence of cells, virus and compounds). To the wells assigned as medium control, 25 μL of culture medium was added instead of Vero cells. Once the cells were added to the plates, the plates were incubated for 30 minutes at room temperature to allow the cells to distribute evenly within the wells. Next, the plates were incubated in a fully humidified incubator (37° C., 5% CO2) until the next day. Then, DENV-2 strain 16681, labeled with eGFP, was added at a multiplicity of infection (MOI) of 0.5. Therefore, 15 μL of virus suspension was added to all the wells containing test compound and to the wells assigned as virus control. In parallel, 15 μL of culture medium was added to the medium and cell controls. Next, the plates were incubated for 3 days in a fully humidified incubator (37° C., 5% CO2). At the day of the read out, the eGFP fluorescence was measured using an automated fluorescence microscope at 488 nm (blue laser). Using an in-house LIMS system, inhibition dose response curves for each compound were calculated and the half maximal effective concentration (EC50) was determined. Therefore, the percent inhibition (I) for every test concentration is calculated using the following formula: I=100*([…])/(SVC−SCC); ST, SCC and SVC are the amount of eGFP signal in the test compound, cell control and virus control wells, respectively. The EC50 represents the concentration of a compound at which the virus replication is inhibited with 50%, as measured by a 50% reduction of the eGFP fluorescent intensity compared to the virus control. The EC50 is calculated using linear interpolation (Table 1).

A further series has as its system DENV-3 strain H87. Briefly: Tetravalent RT-qPCR assay Protocol A, serotype 3. As to conditions: Dengue virus, DENV3, 72 h; RT-qPCR serotype 3 H87, Vero cells, day 3. It is filed as cell-based. As to the method: as §1, §2, §3, §4, §5
A further series deals with DENV-1 strain TC974#666. The series can be described thus: Tetravalent RT-qPCR assay Protocol A, serotype 1. Type of series: cell-based. The note with it: Dengue virus, DENV1, 72 h; RT-qPCR serotype 1 TC974#666, Vero cells, day 3. The procedure: as §1, §2, §3, §4, §5
A further series deals with Vero cells. Briefly: in vitro. It is filed as cell-based. The note with it: African green monkey. As to the method:
as §6

Series [3] in a line: in vitro. It is filed as cell-based. The note with it: African green monkey. As to the method: as §1, §2, §5

Consider `COc1cc(NC(C(=O)c2c[nH]c3cc(F)c(C)cc23)c2ccc(Cl)cc2OCCO)cc(S(C)(=O)=O)c1` (single isomer, unassigned) [Compound 8A, 2-(4-chloro-2-(2-hydroxyethoxy)phenyl)-1-(6-fluoro-5-methyl-1H-indol-3-yl)-2-((3-methoxy-5-(methylsulfonyl)phenyl)amino)ethanone], for which the 50% effective concentration (EC50) in the series on DENV-2 strain 16681 came out at 0.27 nM; in the series on DENV-4 strain H241, 36 nM; in [2], 0.11 nM; with DENV-3 strain H87 it was 4.2 nM; in the series with DENV-1 strain TC974#666 it was 0.39 nM. For the same compound, the cytotoxic concentration (CC50) in the series “in vitro [1]” is more than 2500 nM.
Regarding `COc1cc(NC(C(=O)c2c[nH]c3cc(OC)c(OC(F)(F)F)cc23)c2ccc(Cl)cc2OCCO)cc(S(C)(=O)=O)c1` (single isomer, unassigned) [Compound 11B, 2-(4-chloro-2-(2-hydroxyethoxy)phenyl)-2-((3-methoxy-5-(methylsulfonyl)phenyl)amino)-1-(6-methoxy-5-(trifluoromethoxy)-1H-indol-3-yl)ethanone], the 50% effective concentration (EC50) with DENV-2 strain 16681 is 0.062 nM; in the series on DENV-4 strain H241 it was 11 nM; in [2], 0.089 nM; in the series with DENV-3 strain H87, 1.3 nM; in the series on DENV-1 strain TC974#666, 0.12 nM. Besides, in the series on Vero cells, the CC50 is more than 2300 nM. Further, the 50% cytotoxic concentration (CC50) at 3 days in the series “in vitro [3]” was more than 2500 nM.
Consider `COc1cc(NC(C(=O)c2c[nH]c3cc(F)ccc23)c2ccc(Cl)cc2OCCO)cc(S(C)(=O)=O)c1` (single isomer, unassigned) [Compound 1A, 2-(4-chloro-2-(2-hydroxyethoxy)phenyl)-1-(6-fluoro-1H-indol-3-yl)-2-((3-methoxy-5-(methylsulfonyl)phenyl)amino)ethanone], for which the EC50 with DENV-2 strain 16681 stood at 0.24 nM; in the series on DENV-4 strain H241, 71 nM; in [2], 0.24 nM; with DENV-3 strain H87 it was 9.6 nM; in the series on DENV-1 strain TC974#666, 1.3 nM. In the series on Vero cells, this compound showed a CC50 of 3700 nM. Also, the cytotoxic concentration (CC50) at 3 days in the series “in vitro [3]” is more than 2500 nM.
Turning to `COc1cc(NC(C(=O)c2c[nH]c3c(C)c(F)ccc23)c2ccc(Cl)cc2OCCO)cc(S(C)(=O)=O)c1` (racemic) [Compound 4, 2-(4-chloro-2-(2-hydroxyethoxy)phenyl)-1-(6-fluoro-7-methyl-1H-indol-3-yl)-2-((3-methoxy-5-(methylsulfonyl)phenyl)amino)ethanone], the melting point is 173 °C. Besides, it took 3700 nM to reach half-maximal cytotoxicity in the series “in vitro [1]” (CC50). The half-maximal effective concentration (EC50) in series [2] (Dengue virus, DENV2, Vero, 72 h) was found to be 0.42 nM.
As for `COc1cc(NC(C(=O)c2c[nH]c3c(C)cc(OC(F)(F)F)cc23)c2ccc(Cl)cc2OCCO)cc(S(C)(=O)=O)c1` (single isomer, unassigned) [Compound 12B, 2-(4-chloro-2-(2-hydroxyethoxy)phenyl)-2-((3-methoxy-5-(methylsulfonyl)phenyl)amino)-1-(7-methyl-5-(trifluoromethoxy)-1H-indol-3-yl)ethanone], the EC50 in the series with DENV-2 strain 16681 came out at 0.053 nM; in the series with DENV-4 strain H241, 5.5 nM; in [2], 0.034 nM; in the series on DENV-3 strain H87 it was 1.1 nM; in the series on DENV-1 strain TC974#666 it was 0.086 nM. In “in vitro [3]”, this compound returned a cytotoxic concentration (CC50) at 3 days of more than 2300 nM.
With `COc1cc(NC(C(=O)c2c[nH]c3ccc(OC(F)(F)F)cc23)c2ccc(Cl)cc2OCCO)cc(S(C)(=O)=O)c1` (single isomer, unassigned) [Compound 10B, 2-(4-chloro-2-(2-hydroxyethoxy)phenyl)-2-((3-methoxy-5-(methylsulfonyl)phenyl)amino)-1-(5-(trifluoromethoxy)-1H-indol-3-yl)ethanone], the EC50 with DENV-2 strain 16681 worked out at 0.049 nM; with DENV-4 strain H241, 6.9 nM; in series [2] it was 0.067 nM; in the series with DENV-3 strain H87, 1.4 nM; with DENV-1 strain TC974#666 it was 0.071 nM. In the series on Vero cells, this compound registered a half-maximal cytotoxic concentration (CC50) of 2400 nM. This compound also returned a half-maximal cytotoxic concentration (CC50) at 3 days in the series “in vitro [3]” of more than 2400 nM.
For the compound `COc1cc(NC(C(=O)c2c[nH]c3ccc(C(F)(F)F)cc23)c2ccc(Cl)cc2OCCO)cc(S(C)(=O)=O)c1` (single isomer, unassigned) [Compound 9B, 2-(4-chloro-2-(2-hydroxyethoxy)phenyl)-2-((3-methoxy-5-(methylsulfonyl)phenyl)amino)-1-(5-(trifluoromethyl)-1H-indol-3-yl)ethanone], the EC50 with DENV-2 strain 16681 came to 0.054 nM; in the series with DENV-4 strain H241, 8.1 nM; in [2] it was 0.061 nM; in the series on DENV-3 strain H87 it was 1.2 nM; with DENV-1 strain TC974#666 it was 0.083 nM. In addition, in the series with Vero cells, the CC50 was more than 2400 nM. In the series “in vitro [3]”, the half-maximal cytotoxic concentration (CC50) at 3 days is 2900 nM.
In the series on Vero cells, `COc1cc(NC(C(=O)c2c[nH]c3cc(OC)ccc23)c2ccc(Cl)cc2OCCO)cc(S(C)(=O)=O)c1` (single isomer, unassigned) [Compound 3B, 2-(4-chloro-2-(2-hydroxyethoxy)phenyl)-1-(6-methoxy-1H-indol-3-yl)-2-((3-methoxy-5-(methylsulfonyl)phenyl)amino)ethanone] came in with a CC50 of 13000 nM. Further, the concentration for a half-maximal effect (EC50) in series [2] was 56 nM.
